Read-outs that look alike come from different tables or passages of the source.
How the values were obtained:
[1] = Assessment of formulation components: solubility in non-aqueous solvents; assay type: physicochemical
Procedure: A series of experiments were performed to assess and optimize the components of the subject formulations. AA refers to L-ascorbic acid. U refers to urea. % values are wt %.
Additional ingredients were chosen for their compatibility with (e.g., miscibility in) 1,3 propanediol, 1,2 propanediol, and 1,3 butanediol.

[2] = in most solvents; cited from earlier work
[3] = tested on: skin; conditions: cited from earlier work
[4] = tested on: skin; conditions: concentrations of 0.2%; clinical data from SEPPIC; cited from earlier work

NC(N)=O [urea]
ability of solvent to solubilize urea ([1]; solvent 1,2-hexanediol): moderate
ability of solvent to solubilize urea ([1]; solvent 1,2-propanediol (propylene glycol)): moderate
ability of solvent to solubilize urea ([1]; solvent 1,3-butanediol (butylene glycol)): moderate
ability of solvent to solubilize urea ([1]; solvent 1,3-propanediol): moderate
ability of solvent to solubilize urea ([1]; solvent 1,5-pentanediol, otherwise referred to as pentylene glycol): moderate
ability of solvent to solubilize urea ([1]; solvent dimethyl isosorbide): very limited
ability of solvent to solubilize urea ([1]; solvents glycerin and diglycerin): moderate

O=C(O)CCCCCCCC(=O)O [AzA, Azelaic acid, reference compound]
change of solubility by the presence of hydroxyethyl urea ([1]; in 1,3 propanediol): slightly increased
concentration that can be solubilized ([1]; in 1,3 propanediol): up to 10%
concentration that is possible to solubilize ([1]; with 10% AA, 5% U in a 1,3 propanediol base): 7.5%
solubility [2]: very poorly soluble

CC(C)(CO)[C@@H](O)C(=O)NCCCO [Panthenol]
concentration at which inhibition of transepidermal water loss is apparent [3]: ≥ 1%

Madecassoside
solubility ([1]; at a concentration of 0.2% in 1,3 propanediol, 1,2 propanediol and 1,3 butanediol): soluble
ability to reduce erythema (skin redness) [4]: desirable ability to reduce erythema

COc1cc(CC(C(C)=O)C(C)=O)ccc1O [Acetyl zingerone]
solubility ([1]; in 1,3 propanediol, 1,2 propanediol and 1,3 butanediol at the desired concentrations (0.5-1%)): readily soluble

CC1(C)[C@@H](O[C@H]2O[C@H](C(=O)O)[C@@H](O)[C@H](O)[C@H]2O[C@@H]2O[C@H](C(=O)O)[C@@H](O)[C@H](O)[C@H]2O)CC[C@]2(C)[C@H]3C(=O)C=C4[C@@H]5C[C@@](C)(C(=O)O)CC[C@]5(C)CC[C@@]4(C)[C@]3(C)CC[C@@H]12 [glycyrrhizic acid, Glycyrrhizic acid]
solubility ([1]; in 1,3-propanediol): shows solubility

— patent US20250228756A1, “Anhydrous Urea Emulsions with a Retinoid Agent” (Baek Clinical Inc., priority 2021, published 2025)
